Assay results reported in patent publication US8629100B2, “Method of inhibiting clostridium difficile by administration of oritavancin” (The Medicines Company, priority 2007, dated 2014).
Values after ≈ are worked out from the molar mass of the structure shown. Read-outs that look alike come from different tables or passages of the source.

What was measured:
[1] = test system: genotypically distinct C. difficile (n = 33); experiment: Agar incorporation MIC; assay type: cell-based; details: for MIC range / MIC90: AI; for MIC90 / MIC: Clostridioides difficile
Text: Thirty-three genotypically distinct (by PCR ribotyping) C. difficile isolates were selected from a library of strains at the Leeds General Infirmary (Leeds, UK). Representative isolates of epidemic C. difficile PCR ribotypes 001, 106 and 027 were included in the panel. Control isolates of Staphylococcus aureus ATCC 29213, Enterococcus faecalis ATCC 29212 and Bacteroides fragilis ATCC 25285 were included in all MIC determinations to ensure procedure accuracy.
Agar incorporation MICs were determined based on the method of Freeman and Wilcox (J Antimicrob Chemother 2001; 47: 244-6). Briefly, bacteria were cultured in Schaedler's anaerobic broth (Oxoid, Basingstoke, UK) at 37° C. for 24 h in an anaerobic cabinet (Don Whitley Scientific, Shipley). […] Oritavancin was prepared in 0.002% P80. All antimicrobial solutions were sterilized by filtration through 0.22 um syringe filters. […] Wilkins Chalgren agar (Oxoid) incorporating doubling dilutions of antimicrobial agents (0.03-16 mg/L) was prepared with and without 0.002% P80 and with and without 2% lysed horse blood (E&O Labs, Bonneybridge, UK). All media and diluents were pre-reduced overnight in the anaerobic cabinet. Bacterial cultures were diluted in sterile saline and inoculated onto the surface of agar incorporation agar plates using a multipoint inoculator (˜10^4 cfu). Agar incorporation plates were incubated anaerobically for 48 h. MIC endpoints were read as the lowest concentration of antimicrobial agent where there is no apparent growth (disregarding a visible haze of growth or a single colony).

[2] = test system: C. difficile (CD) ATCC 43255; experiment: Hamster model of CDI, oral administration; assay type: in vivo, Syrian golden hamsters; details: for Mean survival time: ORI 100 mg/kg (HPCD), VA 50 mg/kg/day, oral, 5 days; for Survival prolonged more than untreated animals: formulated in HPCD, gavage
Method: C. difficile (CD) ATCC 43255 was used in all experiments. CD spores were prepared for the infection by incubating CD cells on blood agar plate at 37° C. anaerobically for 7 days, to promote spore formation. The CD colonies were resuspended in phosphate buffered saline (PBS) and mixed with an equal volume of 100% ethanol for one hour. The spores were centrifuged, resuspended in PBS, aliquoted, and frozen at −20° C. Spores were diluted in PBS for oral inoculation into hamsters.
All studies were performed in accordance with protocols that were approved by the Institutional Animal Care and Use Committee. […] One day later (Day 0), animals were infected orally with […] CD spores.
1) Starting on Day 1 post-infection (PI), a single dose of either vehicle, vancomycin (VA) (50 mg/kg/day), or oritavancin (ORI) formulated in 10% hydroxypropyl β-cyclodextrin (HPCD) (10, 50 or 100 mg/kg/day) was administered to the hamsters (n=10/group) by gavage for 5 days.
Detection of CD cells and toxins were detected in the caecal contents of animals at both the experimental and clinical endpoints. Presence of CD toxins (toxin A and B) were detected by using the CD TOX A/B IITM kit (Techlab) as described by the manufacturer. Limit of detection was ≧0.8 ng/mL for Toxin A and ≧2.5 ng/mL of Toxin B. Total viable cells (TC) (both vegetative and spore forms) were enumerated by serially diluting the caecal content by 10 fold in PBS containing 2% oxyrase (Oxyrase Inc). The caecal content dilutions were plated on Brazier's CCEY lysozyme agar (Lab160) without egg yolk. CD spores were counted by treating caecum samples with an equal volume of pure ethanol. The limit of detection (LOD) was 1.47 and 1.77 Log 10 CFU/g caecal content for TC and spores, respectively.
Data were analyzed by Kaplan-Meier and Log rank Wilcoxon tests survival analysis by using GraphPad Prism (version 5.00). A p-value lower than 0.05 (p<0.05) was considered to indicate statistical significance.

C. difficile spores = experiment: Agar-based culture: spore recovery after antimicrobial exposure; assay type: cell-based; details: 350 mg/L, 1 min and 30 min, filtered onto CAF, 48 h
Method: Antimicrobial-spore solutions were mixed, diluted (to sub-MIC) in sterile de-ionised water, filtered onto cellulose acetate filters (CAF, 0.45 μm) and washed. CAF were transferred onto Brazier's agar (pH 7)+5 mg/L lysozyme, and following anaerobic incubation (37° C., 48 h), % C. difficile spores (vs. control) were determined.

S. aureus NCTC 6571 = experiment: Agar incorporation MIC against S. aureus NCTC 6571; assay type: cell-based; details: Staphylococcus aureus, NCTC6571; agar incorporation methodology
Oxford S. aureus = experiment: Antimicrobial-spore binding: washed exposed spores on S. aureus lawn (Example 3D); assay type: cell-based, Staphylococcus aureus; details: spores suspended in 350 mg/L; after 0, 1, 2, 4, 5, 6, 9 and 10 washes
Method: A further potential explanation for the failure to recover oritavancin-treated C. difficile spores from the above experiments (in addition to presence of the drug in cellulose acetate filters) is that oritavancin may be able to bind C. difficile spores and directly damage spores, or inhibit spore germination and/or outgrowth. A simple experiment was conducted in order to assess antimicrobial-spore binding:
Two solutions were prepared:
1) C. difficile spores (PCR ribotype 001, control), and
2) C. difficile spores suspended in 350 mg/L oritavancin (diluent: Tween-80-H2O).
Fresh blood agar was inoculated with a lawn of the Oxford S. aureus. In one replicate, C. difficile spores were centrifuged (16000 g, 5 min), the supernatants removed and pellets re-suspended in 500 μL of Tween-80-H2O. 10 μL of the re-suspended spore suspension was inoculated onto the surface S. aureus lawn.
In another replicate, C. difficile spore suspensions were washed a total of 10 times using this procedure and inoculated onto the surface of the S. aureus lawn.
In both replicates agar was incubated aerobically at 37° C. overnight, and then the presence or absence of zones of inhibition were recorded.

[3] = read-out: GEO MIC, AI, P80 no LHB
[4] = read-out: GEO MIC, AI, P80 with LHB
[5] = read-out: GEO MIC, AI, no P80 no LHB
[6] = read-out: GEO MIC, AI, no P80 with LHB

Structure (SMILES) | MIC range ([1]; P80 no LHB) [mg/L] | MIC range ([1]; P80 with LHB) [mg/L] | MIC range ([1]; no P80 no LHB) [mg/L] | MIC range ([1]; no P80 with LHB) [mg/L] | MIC90 ([1]; P80 no LHB) [µg/mL] | MIC90 ([1]; P80 with LHB) [µg/mL] | MIC90 ([1]; no P80 no LHB) [µg/mL] | MIC90 ([1]; no P80 with LHB) [µg/mL] | MIC [1, 3] [µg/mL] | MIC [1, 4] [µg/mL] | MIC [1, 5] [µg/mL] | MIC [1, 6] [µg/mL] | Mean survival time [2] [days] | Recovery of C. difficile spores following exposure (C. difficile spores) | MIC (S. aureus NCTC 6571) [µg/mL] | Effect of antibiotic-exposed C. difficile spores on growth of Oxford S. aureus (Oxford S. aureus) | Survival prolonged more than untreated animals ([2]; 10 mg/kg once daily for 5 days) [days] | Survival prolonged more than untreated animals ([2]; 50 mg/kg once daily for 5 days) [days] | Survival prolonged more than untreated animals ([2]; 100 mg/kg once daily for 5 days) [days] | Efficacy compared to VA on Day 12 PI ([2]; 100 mg/kg, HPCD)
CN[C@H](CC(C)C)C(=O)N[C@H]1C(=O)N[C@@H](CC(N)=O)C(=O)N[C@H]2C(=O)N[C@H]3C(=O)N[C@H](C(=O)N[C@H](C(=O)O)c4cc(O)cc(O)c4-c4cc3ccc4O)[C@H](O)c3ccc(c(Cl)c3)Oc3cc2cc(c3O[C@@H]2O[C@H](CO)[C@@H](O)[C@H](O)[C@H]2O[C@H]2C[C@](C)(N)[C@H](O)[C@H](C)O2)Oc2ccc(cc2Cl)[C@H]1O [vancomycin] | 1 to 4 | 0.5 to 2 | 0.5 to 2 | 1 to 4 | 2 (≈ 1.38 µM) | 1 (≈ 0.69 µM) | 2 (≈ 1.38 µM) | 2 (≈ 1.38 µM) | 1.3 (≈ 0.897 µM) | 1 (≈ 0.69 µM) | 1.51 (≈ 1.04 µM) | 1.35 (≈ 0.932 µM) | 12 |  |  |  |  |  |  | 
CN[C@H](CC(C)C)C(=O)N[C@H]1C(=O)N[C@@H](CC(N)=O)C(=O)N[C@H]2C(=O)N[C@H]3C(=O)N[C@H](C(=O)N[C@H](C(=O)O)c4cc(O)cc(O)c4-c4cc3ccc4O)[C@H](O[C@H]3C[C@](C)(N)[C@@H](O)[C@H](C)O3)c3ccc(c(Cl)c3)Oc3cc2cc(c3O[C@@H]2O[C@H](CO)[C@@H](O)[C@H](O)[C@H]2O[C@H]2C[C@](C)(NCc3ccc(-c4ccc(Cl)cc4)cc3)[C@@H](O)[C@H](C)O2)Oc2ccc(cc2Cl)[C@H]1O [oritavancin, N-(4-(4-chlorophenyl)benzyl)A82846B] | 2 to 4 | 1 to 4 | 2 to 4 | 0.5 to 4 | 4 (≈ 2.23 µM) | 4 (≈ 2.23 µM) | 4 (≈ 2.23 µM) | 2 (≈ 1.12 µM) | 2.7 (≈ 1.51 µM) | 1.58 (≈ 0.881 µM) | 2.33 (≈ 1.3 µM) | 1.72 (≈ 0.959 µM) | 17 | not recovered | ~4 (≈ 2.23 µM) | inhibitory to growth | 9 | 13 | > 17 | superior efficacy
